“Also recorded” adds a separate entry of the source. Where two headings read alike, the source gives them in different places.
How the values were obtained:
[1] = test system: IL-17 production in myelin-specific CD4 T cells; test: Inhibition of IL-17 production in myelin-specific CD4 T cells (splenocytes activated with MBP Ac1-11 plus TGF-β and IL-6; flow cytometry, ELISA); assay type: cell-based, mice; settings: 3 days; for suppression of IL-17 production in myelin-specific CD4 T cells (in words): in vitro; for suppression of IL-17 production: murine myelin-specific CD4 T cells
Description: In vitro culture of splenocytes from TCR transgenic mice. Splenocytes were prepared from naïve 5-10-wk-old Vα2.3/Vβ8.2 TCR transgenic mice and cultured in 24-well plates at […] with irradiated B10.PL splenocytes (6×10^8 cells/well). Cells were activated with of MBP Ac1-11 (10 μg/ml) and different combination of cytokines or neutralizing antibodies for cytokines to differentiate effector T helper cells. Cytokines and antibody concentrations were as follows: 0.5 ng/ml IL-12, 25 ng/ml IL-6, 1 ng/ml TGFβ1, 2 μg/ml anti-IFNγ, 1 μg/ml anti-IL-12, 2 μg/ml anti-IL-4, and 0.35 μg/ml anti-TGFβ (Yang, Weiner et al. 2009).
ELISA Assay. ELISA was performed to detect the expression of IL-17 and IFNγ in supernatant. Purified anti-mouse IL-17 primary antibody (BD bioscience) was diluted in 0.1 M NaHCO3 (pH 8.2) at 2 μg/ml while purified anti-mouse IFNγ primary antibody was diluted in 0.1M NaHCO3 (pH 9.5) at 2 μg/ml. Immunolon II plates (Dynatech Laboratories) were coated with 50 μl of primary antibodies per well and incubated overnight at 4° C. The plates were washed twice with PBS/0.05% Tween 20. The plates were blocked with 200 μl of 1% BSA in PBS per well for 2 h. The plates were washed twice with PBS/0.05% Tween 20, and 100 μl of supernatants were added in duplicate. The plates were incubated over-night at 4° C. and washed four times with PBS/0.05% Tween 20. Biotinylated rat anti-mouse secondary antibody (BD bioscience) were diluted in PBS/1% BSA, 100 μl of 1 μg/ml biotinylated antibody was added to each well, and plates were incubated at room temperature for 1 h. The plates were washed six times with PBS/0.05% Tween 20, and 100 μl avidin-peroxidase was added at 2.5 μg/ml and incubated for 30 min. The plates were washed eight times with PBS/0.05% Tween 20, and 100 μl ABTS substrate containing 0.03% H2O2 (for IL-17) or TMB substrate (for IFNγ) was added to each well. The plate was monitored for 10-20 min for color development and read at A 405. A standard curve was generated from cytokine standard, and the cytokine concentration in the samples was calculated.
Intracellular staining and flow cytometric analysis. Flow cytometric analysis was performed to evaluate the expression of surface markers and T-bet in CD4 T cells, as previously described (Yang, Weiner et al. 2009). Briefly, splenocytes were activated with antigen or αCD3/CD28 for 48 to 72 hours. Cells were then collected, washed, and resuspended in staining buffer (1% BSA in PBS). The cells were incubated with mAbs to the cell-surface markers for 30 min at 4° C. After washing twice with staining buffer, cells were fixed and permeabilized using Cytofix/Cytoperm solution for 20 min at 4° C. […] 80,000-100,000 live cell events were acquired on a FACSCanto (BD) and analyzed using FlowJo software (Tree Star, Inc.). […]

in vivo = test: in vivo; design: species or system mice
[2] = mouse, in vivo, mice, Intravenous 2 mg/kg
[3] = mouse, in vivo, mice, Oral 8 mg/kg

## NS(=O)(=O)c1cccc2c1C(=O)c1cccc(O)c1C2=O [LLL12]
[1]
  suppression of IL-17 production in myelin-specific CD4 T cells (in words): inhibition of IL-17
In vivo; mouse, in vivo
  Tmax: 5 to 10 min
  time until cleared: ~60 min
In vivo; mouse, in vivo, ip, 20 mg/kg
  AUC: 0.431 µM·h
  AUC(0-inf): 0.438 µM·h
  Cmax: 922 nM
  Tmax: 10 min
  bioavailability: 29.1%
In vivo; mouse, in vivo, iv, 5 mg/kg
  AUC: 0.373 µM·h
  AUC(0-inf): 0.377 µM·h
  Cmax: 978 nM
  Tmax: 10 min
  bioavailability: 100%
In vivo; mouse, in vivo, po
  time until cleared: about 30 minutes
In vivo; mouse, in vivo, po, 20 mg/kg
  AUC: 0.0407 µM·h
  Cmax: 176 nM
  Tmax: 4.98 min
  bioavailability: 2.73%

## CN(C)C(=O)Oc1cccc2c1C(=O)c1cccc(S(N)(=O)=O)c1C2=O [LLL12b]
[1]; 0.25 μM
  suppression of IL-17 production: 44%
[1]; 0.50 μM
  suppression of IL-17 production: 72%
[1]
  suppression of IL-17 production in myelin-specific CD4 T cells (in words): significantly suppress IL-17 production; also recorded: inhibits myelin-specific IL-17 production in a dose-dependent manner
In vivo; mice, IV
  duration of sustained effective concentration: about 4 hours
In vivo; mice, PO
  duration of sustained effective concentration: about 8 hours
In vivo; [2]
  AUC(0-t): 892 ± 131 ng·h/mL
  Vd: 12.4 ± 2.89 L/kg
  clearance: 36.5 mL/min/kg
  half-life: 233 ± 27 min
In vivo; mouse, in vivo, mice, Intravenous 2 mg/kg, read-out: Co/Cmax
  Cmax: 2880 ± 935 ng/mL
In vivo; [3]
  AUC(0-t): 1360 ± 396 ng·h/mL
  half-life: 461 ± 115 min
In vivo; mouse, in vivo, mice, Oral 8 mg/kg, read-out: Co/Cmax
  Cmax: 278 ± 93 ng/mL
In vivo; mouse, in vivo, mice, Oral 8 mg/kg, read-out: Tmax
  Tmax: 11.4 ± 5.4 min
In vivo; mouse, in vivo, mice, printed in the Intravenous 2 mg/kg column, read-out: F (relative bioavailability)
  bioavailability: 38%
